Assays:
G401 = assay: standardised AUC of viability dose-response curve (72 h) (fraction (0-1)); higher = less growth inhibition (more resistant)
How it was run: (§1)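 Viability of sarcoma cell lines was read with ATPLite after 72 h of triplicate treatment in 384-well plates with 2.5 µl of compound from a compound-plate series of 10 mM to 0.0002 mM. Viability was scaled 1 (full) to 0 (none) and fitted with a four-parameter log-logistic model for each drug and cell line. The reported standardised area under the dose-response curve in log-dose space comes from a modified drexplorer computeAUC, where 1 is no response and 0 is full response.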

HS729 = assay: as above
How it was run: as §1

SK-ES-1 = assay: as above
How it was run: as §1

SW1353 [1] = assay: as above
How it was run: as §1

HT1080 [2] = assay: as above
How it was run: as §1

A204 = assay: as above
How it was run: as §1

MES-SA = assay: as above
How it was run: as §1

SK-LMS-1 = assay: as above
How it was run: as §1

KHOS-240S [3] = assay: as above
How it was run: as §1

SW872 = assay: as above
How it was run: as §1

RD = assay: as above
How it was run: as §1

KHOS-NP = assay: as above
How it was run: as §1

VA-ES-BJ = assay: as above
How it was run: as §1

SW982 [4] = assay: as above
How it was run: as §1

SYO-1 = assay: as above
How it was run: as §1

SW684 = assay: as above
How it was run: as §1

RD-ES [5] = assay: as above
How it was run: as §1

SW1353 [6] = assay: relative viability vs DMSO control (72 h) (fraction); higher = more viable cells
How it was run: (§2)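 Sarcoma cell lines went into 384-well plates at densities chosen to reach 80–90% confluence. After 24 h, each well received 2.5 µl of serially diluted compound, with source plates running from 10 mM to 0.0002 mM, and the plates were kept 72 h at 37 °C, 5% CO2, alongside 0.1% DMSO vehicle and a 5 µM positive control. Relative viability was derived from ATPLite readings as percent growth and averaged over up to triplicate wells. The data were then rescaled so that 1 stands for full and 0 for none.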

HT1080 [7] = assay: as above
How it was run: as §2

KHOS-240S [8] = assay: as above
How it was run: as §2

SW982 [9] = assay: as above
How it was run: as §2

RD-ES [10] = assay: as above
How it was run: as §2

COc1cc2ncnc(Nc3cccc(Cl)c3F)c2cc1OC(=O)N1CCN(C)C[C@H]1C [AZD-3759]
Details | standardised AUC
A204 | 0.958
G401 | 0.972
HS729 | 0.906
HT1080 [2] | 0.975
KHOS-240S [3] | 0.967
KHOS-NP | 0.969
MES-SA | 0.974
RD | 0.991
RD-ES [5] | 0.992
SK-ES-1 | 0.972
SK-LMS-1 | 0.964
SW684 | 0.978
SW872 | 0.967
SW982 [4] | 0.977
SW1353 [1] | 0.922
SYO-1 | 0.91
VA-ES-BJ | 0.955

relative viability
Details | HT1080 [7] | KHOS-240S [8] | RD-ES [10] | SW982 [9] | SW1353 [6]
0.00017 µM | 1.06 | 1.04 | 0.97 | 1.06 | 1.02
0.00051 µM | 1.04 | 1.06 | 0.967 | 1.02 | 1.02
0.00152 µM | 1.02 | 1.06 | 0.9816 | 1.03 | 1.04
0.00457 µM | 1.04 | 1.06 | 0.977 | 1.06 | 0.998
0.01372 µM | 1.03 | 1.05 | 0.983 | 1.07 | 0.964
0.04115 µM | 1.03 | 1.04 | 0.991 | 1.04 | 0.983
0.1235 µM | 1.01 | 1.05 | 0.9757 | 1.07 | 0.979
0.3704 µM | 1.02 | 1.04 | 0.9684 | 1.07 | 0.868
1.111 µM | 1.026 | 0.9537 | 0.961 | 1.01 | 0.877
3.333 µM | 1 | 0.976 | 0.948 | 0.945 | 0.8196
10 µM | 1.02 | 0.878 | 0.915 | 0.889 | 0.769

Cc1ccc(C(=O)OCc2ccc([C@@H](CN)C(=O)Nc3ccc4cnccc4c3)cc2)c(C)c1 [Netarsudil]
relative viability
Details | HT1080 [7] | KHOS-240S [8] | RD-ES [10] | SW982 [9] | SW1353 [6]
0.00017 µM | 1.03 | 1.06 | 0.995 | 1.06 | 0.939
0.00051 µM | 1.02 | 1.07 | 0.98 | 1.03 | 0.945
0.00152 µM | 1.043 | 1.05 | 0.971 | 1.03 | 0.946
0.00457 µM | 0.994 | 1.05 | 0.9831 | 1.04 | 0.944
0.01372 µM | 1.03 | 1.01 | 0.976 | 1.05 | 0.926
0.04115 µM | 1.01 | 1.03 | 1.02 | 1.032 | 0.946
0.1235 µM | 1.03 | 0.903 | 1.015 | 0.98 | 0.898
0.3704 µM | 1.04 | 0.768 | 1.035 | 0.897 | 0.7532
1.111 µM | 1.03 | 0.686 | 1.01 | 0.841 | 0.628
3.333 µM | 1.02 | 0.541 | 0.677 | 0.749 | 0.553
10 µM | 0.0118 | 0.0141 | 0.0137 | 0.0152 | 0.0095

Cc1cn(-c2cc(NC(=O)c3ccc(C)c(Nc4nccc(-c5cccnc5)n4)c3)cc(C(F)(F)F)c2)cn1 [Nilotinib]
relative viability
Details | HT1080 [7] | KHOS-240S [8] | RD-ES [10] | SW982 [9] | SW1353 [6]
0.00017 µM | 1.02 | 1.04 | 0.934 | 0.977 | 0.933
0.00051 µM | 0.997 | 1.02 | 0.919 | 0.983 | 0.951
0.00152 µM | 0.964 | 1.03 | 0.927 | 0.957 | 0.935
0.00457 µM | 1.01 | 1.02 | 0.938 | 0.974 | 0.967
0.01372 µM | 1.04 | 1.03 | 0.925 | 0.988 | 0.969
0.04115 µM | 0.991 | 1.01 | 0.936 | 0.994 | 1.01
0.1235 µM | 1.03 | 0.999 | 0.912 | 0.987 | 1.05
0.3704 µM | 1 | 0.998 | 0.883 | 0.998 | 1.09
1.111 µM | 0.993 | 0.907 | 0.826 | 0.973 | 1.08
3.333 µM | 1.02 | 0.847 | 0.702 | 0.902 | 0.994
10 µM | 0.889 | 0.658 | 0.714 | 0.727 | 0.846

From the supplement of paper PMC10883282
